From patent US20240360082A1, “SUBSTITUTED PYRIDONE COMPOUNDS USEFUL TO TREAT ORTH[…]” (priority 2021, published 2024)

These compounds were tested against influenza A virus minigenome (PB2, PB1, PA, NP proteins) (UniProt P04665). Conditions: read-out: RNP_ Hubei B IC50.
Type: cell-based

Chain of influenza A virus minigenome (PB2, PB1, PA, NP proteins) (P04665 whole entry): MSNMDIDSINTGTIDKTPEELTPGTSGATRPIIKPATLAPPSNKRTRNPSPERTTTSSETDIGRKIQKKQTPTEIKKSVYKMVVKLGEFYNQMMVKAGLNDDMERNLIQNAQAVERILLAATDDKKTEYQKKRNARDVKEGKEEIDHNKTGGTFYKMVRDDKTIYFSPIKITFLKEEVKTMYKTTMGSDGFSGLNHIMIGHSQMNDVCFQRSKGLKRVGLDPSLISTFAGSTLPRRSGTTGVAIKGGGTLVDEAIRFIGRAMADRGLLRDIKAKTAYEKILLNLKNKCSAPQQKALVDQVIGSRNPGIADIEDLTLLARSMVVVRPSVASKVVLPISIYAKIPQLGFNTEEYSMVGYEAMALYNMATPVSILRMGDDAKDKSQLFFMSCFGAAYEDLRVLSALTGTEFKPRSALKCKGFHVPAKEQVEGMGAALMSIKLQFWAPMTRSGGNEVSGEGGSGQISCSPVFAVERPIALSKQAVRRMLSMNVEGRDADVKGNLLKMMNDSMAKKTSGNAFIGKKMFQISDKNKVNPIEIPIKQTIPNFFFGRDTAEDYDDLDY

**Q.** Which IC50 does the source give for `C[C@@]12O[C@H](COc3ccc(-c4cc(C(N)=O)c(=O)[nH]c4C(F)(F)F)cc3)CO[C@@H]1C2(F)F` [Example 395, 55-(4-(((1R,3S,6S)-7,7-difluoro-1-methyl-2,5-dioxabicyclo[4.1.0]heptan-3-yl)methoxy)phenyl)-2-oxo-6-(trifluoromethyl)-1,2-dihydropyridine-3-carboxamide] here?
**A.** The IC50 was 5 to 10 µM.

**Q.** With `COC[C@H]1COC[C@H](COc2ccc(-c3cc(C(N)=O)c(=O)[nH]c3C(F)(F)F)cc2)O1` (single isomer, unassigned) [Example 401] as the compound, how does the IC50 read?
**A.** The IC50 was 5 to 10 µM.

**Q.** For `NC(=O)c1cc(-c2ccc(OCC3COCC(COCC4(F)CC4)O3)cc2)c(C(F)(F)F)[nH]c1=O` (single isomer, unassigned) [Example 364, 5-(4-((6-(((1-fluorocyclopropyl)methoxy)methyl)-1,4-dioxan-2-yl)methoxy)phenyl)-2-oxo-6-(trifluoromethyl)-1,2-dihydropyridine-3-carboxamide], which IC50 is on record?
**A.** The IC50 was 5 to 10 µM.

**Q.** For `CC1COC(COc2ccc(-c3cc(C(N)=O)c(=O)[nH]c3C(F)(F)F)cc2)CO1` (single isomer, unassigned) [Example 322, 5-(4-((5-methyl-1,4-dioxan-2-yl)methoxy)phenyl)-2-oxo-6-(trifluoromethyl)-1,2-dihydropyridine-3-carboxamide], which IC50 is on record?
**A.** The IC50 was 25 to 50 µM.

**Q.** With `NC(=O)c1cc(-c2ccc(OCC3C[C@@H]4CC[C@H]3O4)cc2)c(C(F)(F)F)[nH]c1=O` (single isomer, unassigned) [Example 313, 5-(4-((7-oxabicyclo[2.2.1]heptan-2-yl)methoxy)phenyl)-2-oxo-6-(trifluoromethyl)-1,2-dihydropyridine-3-carboxamide] as the compound, how does the IC50 read?
**A.** The IC50 was 10 to 25 µM.

**Q.** Which IC50 does the source give for `C[C@]1(COC2COC2)COC[C@@H](COc2ccc(-c3cc(C(N)=O)c(=O)[nH]c3C(F)(F)F)cc2)O1` [Example 427, 5-(4-(((2S,6R)-6-methyl-6-((oxetan-3-yloxy)methyl)-1,4-dioxan-2-yl)methoxy)phenyl)-2-oxo-6-(trifluoromethyl)-1,2-dihydropyridine-3-carboxamide] here?
**A.** The IC50 was 5 to 10 µM.

**Q.** With `CC1COC(COc2ccc(-c3cc(C(N)=O)c(=O)[nH]c3C(F)(F)F)cc2)CO1` (single isomer, unassigned) [Example 323, 5-(4-((5-methyl-1,4-dioxan-2-yl)methoxy)phenyl)-2-oxo-6-(trifluoromethyl)-1,2-dihydropyridine-3-carboxamide] as the compound, how does the IC50 read?
**A.** Its IC50 is 10 to 25 µM.

**Q.** With `[2H]C([2H])([2H])OC[C@@]1(C)COC[C@@H](COc2ccc(-c3cc(C(N)=O)c(=O)[nH]c3C(F)(F)F)cc2)O1` [Example 410, 5-(4-(((2S,6S)-6-((methoxy-d3)methyl)-6-methyl-1,4-dioxan-2-yl)methoxy)phenyl)-2-oxo-6-(trifluoromethyl)-1,2-dihydropyridine-3-carboxamide] as the compound, how does the IC50 read?
**A.** Its IC50 is 5 to 10 µM.

**Q.** Which IC50 does the source give for `CC(C)(C)OC(=O)N1CCC(COc2ccc(-c3cc(C(N)=O)c(=O)[nH]c3C(F)(F)F)cc2)C1` (centres unmarked) [Example 302, Tert-butyl 3-((4-(5-carbamoyl-6-oxo-2-(trifluoromethyl)-1,6-dihydropyridin-3-yl)phenoxy)methyl)pyrrolidine-1-carboxylate] here?
**A.** Its IC50 is 25 to 50 µM.

**Q.** With `CC(C)n1ncc2c1COCC2COc1ccc(-c2cc(C(N)=O)c(=O)[nH]c2C(F)(F)F)cc1` (single isomer, unassigned) [Example 294, 5-(4-((1-isopropyl-1,4,5,7-tetrahydropyrano[3,4-c]pyrazol-4-yl)methoxy)phenyl)-2-oxo-6-(trifluoromethyl)-1,2-dihydropyridine-3-carboxamide] as the compound, how does the IC50 read?
**A.** The IC50 was 5 to 10 µM.

**Q.** `COC[C@@]1(C)COC[C@@H](COc2ccc(-c3cc(C(N)=O)c(=O)[nH]c3C(F)(F)F)cc2)O1` [Example 405, 5-(4-(((2S,6S)-6-(methoxymethyl)-6-methyl-1,4-dioxan-2-yl)methoxy)phenyl)-2-oxo-6-(trifluoromethyl)-1,2-dihydropyridine-3-carboxamide] was tested. Which IC50 did it give?
**A.** The IC50 was 5 to 10 µM.

**Q.** For `Cc1ncc(COc2ccc(-c3cc(C(N)=O)c(=O)[nH]c3C(F)(F)F)cc2)s1` [Example 271, 5-(4-((2-methylthiazol-5-yl)methoxy)phenyl)-2-oxo-6-(trifluoromethyl)-1,2-dihydropyridine-3-carboxamide], which IC50 is on record?
**A.** The IC50 was 25 to 50 µM.

**Q.** How did the IC50 turn out when `CCc1cc(COc2ccc(-c3cc(C(N)=O)c(=O)[nH]c3C(F)(F)F)cc2)n(C)n1` [Example 262, 5-(4-((3-ethyl-1-methyl-1H-pyrazol-5-yl)methoxy)phenyl)-2-oxo-6-(trifluoromethyl)-1,2-dihydropyridine-3-carboxamide] was run?
**A.** Its IC50 is 25 to 50 µM.

**Q.** How did the IC50 turn out when `COC(C)(C)C1COCC(COc2ccc(-c3cc(C(N)=O)c(=O)[nH]c3C(F)(F)F)cc2)O1` (centres unmarked) [Example 382, 5-(4-((6-(2-methoxypropan-2-yl)-1,4-dioxan-2-yl)methoxy)phenyl)-2-oxo-6-(trifluoromethyl)-1,2-dihydropyridine-3-carboxamide] was run?
**A.** The IC50 was 5 to 10 µM.

**Q.** `NC(=O)c1cc(-c2ccc(OCC3COCC(COCC4CC4)O3)cc2)c(C(F)(F)F)[nH]c1=O` (single isomer, unassigned) [Example 362, 5-(4-((6-((cyclopropylmethoxy)methyl)-1,4-dioxan-2-yl)methoxy)phenyl)-2-oxo-6-(trifluoromethyl)-1,2-dihydropyridine-3-carboxamide] was tested. Which IC50 did it give?
**A.** Its IC50 is 5 to 10 µM.

**Q.** With `CC1(OCC2COCC(COc3ccc(-c4cc(C(N)=O)c(=O)[nH]c4C(F)(F)F)cc3)O2)COC1` (single isomer, unassigned) [Example 378] as the compound, how does the IC50 read?
**A.** The IC50 was 5 to 10 µM.

**Q.** `C[C@@]1(CN2CC(F)C2)COC[C@@H](COc2ccc(-c3cc(C(N)=O)c(=O)[nH]c3C(F)(F)F)cc2)O1` [Example 421] was tested. Which IC50 did it give?
**A.** Its IC50 is 5 to 10 µM.

Same assay, conditions: read-out: RNP_Hubei B

**Q.** Which IC50 does the source give for `COCc1ccc(-c2cc(C(N)=O)c(=O)[nH]c2C(F)(F)F)cc1` [Example 15, 5-(4-(methoxymethyl)phenyl)-2-oxo-6-(trifluoromethyl)-1,2-dihydropyridine-3-carboxamide] here?
**A.** The IC50 was 25 to 50 µM.

**Q.** How did the IC50 turn out when `CS(=O)(=O)NCc1ccc(-c2cc(C(N)=O)c(=O)[nH]c2C(F)(F)F)cc1` [Example 49, 5-(4-(methylsulfonamidomethyl)phenyl)-2-oxo-6-(trifluoromethyl)-1,2-dihydropyridine-3-carboxamide] was run?
**A.** The IC50 was 25 to 50 µM.

**Q.** For `NC(=O)c1cc(-c2ccc(OCC3OCC4CCC3O4)cc2)c(C(F)(F)F)[nH]c1=O` (single isomer, unassigned) [Example 317, 5-(4-((3,8-dioxabicyclo[3.2.1]octan-2-yl)methoxy)phenyl)-2-oxo-6-(trifluoromethyl)-1,2-dihydropyridine-3-carboxamide], which IC50 is on record?
**A.** The IC50 was 5 to 10 µM.

**Q.** For `N#Cc1ccc(COc2ccc(-c3cc(C(N)=O)c(=O)[nH]c3C(F)(F)F)cc2)cc1` [Example 77, 5-(4-((4-cyanobenzyl)oxy)phenyl)-2-oxo-6-(trifluoromethyl)-1,2-dihydropyridine-3-carboxamide], which IC50 is on record?
**A.** The IC50 was 10 to 25 µM.

**Q.** How did the IC50 turn out when `NC(=O)c1cc(-c2ccc(OCc3ccc4nonc4c3)cc2)c(C(F)(F)F)[nH]c1=O` [Example 71, 5-(4-(benzo[c][1,2,5]oxadiazol-5-ylmethoxy)phenyl)-2-oxo-6-(trifluoromethyl)-1,2-dihydropyridine-3-carboxamide] was run?
**A.** The IC50 was 25 to 50 µM.

**Q.** Which IC50 does the source give for `NC(=O)c1cc(-c2ccc(CN3CCOCC3=O)cc2)c(C(F)(F)F)[nH]c1=O` [Example 46, 2-oxo-5-(4-((3-oxomorpholino)methyl)phenyl)-6-(trifluoromethyl)-1,2-dihydropyridine-3-carboxamide] here?
**A.** Its IC50 is 25 to 50 µM.
